Tested on: SMN2-linked luciferase-reporter gene construct
Assay: SMN splice reporter assay (SMN2-linked luciferase reporter, Example 10)
Assay type: cell-based
Details: average; for maximal fold induction: maximum fold increase of reporter signal, read-out: SMN Splice Reporter Assay (Example 10) Avg MaxFold Increase; for EC50: SMN2-linked luciferase reporter
Method in brief: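 Values are fold-increase in luciferase signal relative to baseline cells without compound. The cervical carcinoma line used holds a fusion of alternatively spliced SMN2 sequence and luciferase. Readable frame, and thus signal, arises only with exon 7-including splicing.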

EC50	Structure (SMILES)	maximal fold induction
–	CC(C(=O)OC(C)(C)C)c1cccc(N2Cc3ccccc3C2=O)c1 (centres unmarked) [ALB-112361]	1.09
–	CC(C)(C)OC(=O)C1(c2ccc(N3Cc4ccccc4C3=O)cc2)CCCC1 [ALB-112362]	1.05
3260 nM	CCC(C(=O)OC(C)(C)C)c1ccc(N2Cc3ccccc3C2=O)cc1 (centres unmarked) [ALB-112364]	1.21
12400 nM	CC(C)(C)OC(=O)C1(c2ccc(N3Cc4ccccc4C3=O)cc2)CC1 [ALB-112365]	1.5
–	O=C1c2ccccc2CN1c1ccc(C2(C(=O)O)CCCC2)cc1 [ALB-112431]	1.21
4180 nM	CCC(C(=O)O)c1ccc(N2Cc3ccccc3C2=O)cc1 (centres unmarked) [ALB-112433]	1.32
–	O=C1c2ccccc2CN1c1ccc(C2(C(=O)O)CC2)cc1 [ALB-112434]	1.28
5980 nM	CC(C(=O)OC(C)(C)C)c1ccc(N2Cc3ccccc3C2=O)cc1C#N (centres unmarked) [ALB-112435]	1.2
–	CC(C(=O)OC(C)(C)C)c1ccc(N2Cc3ccccc3C2=O)c(C#N)c1 (centres unmarked) [ALB-112436]	1.07
–	CC(C(=O)O)c1ccc(N2Cc3ccccc3C2=O)cc1C#N (centres unmarked) [ALB-112437]	1.09
2710 nM	Cc1cc(N2Cc3ccccc3C2=O)ccc1C(C)C(=O)OC(C)(C)C (centres unmarked) [ALB-112438]	1.42
–	CC(C(=O)OC(C)(C)C)c1ccc(N2Cc3ccc(-c4ccccc4)cc3C2=O)cc1 (centres unmarked) [ALB-112441]	1.08
–	Cc1ccc(-c2ccc3c(c2)C(=O)N(c2ccc(C(C)C(=O)OC(C)(C)C)cc2)C3)cc1 (centres unmarked) [ALB-112442]	1.11
–	CC(C(=O)OC(C)(C)C)c1ccc(N2Cc3ccc(-c4ccc(Cl)cc4)cc3C2=O)cc1 (centres unmarked) [ALB-112443]	1.07
307 nM	CC(C(=O)OC(C)(C)C)c1ccc(N2Cc3cc(C#N)ccc3C2=O)cc1 (centres unmarked) [ALB-112444]	1.04
–	CC(C(=O)OC(C)(C)C)c1ccc(N2Cc3ccc(C#N)cc3C2=O)cc1 (centres unmarked) [ALB-112445]	1.13
1700 nM	CC(C(=O)O)c1ccc(N2Cc3ccc(-c4ccccc4)cc3C2=O)cc1 (centres unmarked) [ALB-112446]	1.45
2020 nM	Cc1ccc(-c2ccc3c(c2)C(=O)N(c2ccc(C(C)C(=O)O)cc2)C3)cc1 (centres unmarked) [ALB-112447]	1.27
6190 nM	COc1ccc(-c2ccc3c(c2)C(=O)N(c2ccc(C(C)C(=O)O)cc2)C3)cc1 (centres unmarked) [ALB-112448]	1.55
–	CC(C(=O)O)c1ccc(N2Cc3ccc(-c4ccc(Cl)cc4)cc3C2=O)cc1 (centres unmarked) [ALB-112449]	1.16
–	COc1ccc(-c2ccc3c(c2)C(=O)N(c2ccc(C(C)C(=O)OC(C)(C)C)cc2)C3)cc1 (centres unmarked) [ALB-112450]	1.09
–	CC(C(=O)OC(C)(C)C)c1ccc(N2Cc3cccc(C#N)c3C2=O)cc1 (centres unmarked) [ALB-112472]	1.12
2 nM	CC(C(=O)OC(C)(C)C)c1ccc(N2Cc3ccc(-c4cccnc4)cc3C2=O)cc1 (centres unmarked) [ALB-112473]	1.03
–	CC(C(=O)OC(C)(C)C)c1ccc(N2Cc3ccc(-c4cccs4)cc3C2=O)cc1 (centres unmarked) [ALB-112474]	1.18
114 nM	CC(C(=O)OC(C)(C)C)c1ccc(N2Cc3ccc(-c4ccc(Cl)c(Cl)c4)cc3C2=O)cc1 (centres unmarked) [ALB-112475]	1.05
–	CC(C(=O)OC(C)(C)C)c1ccc(N2Cc3ccc(-c4cncnc4)cc3C2=O)cc1 (centres unmarked) [ALB-112476]	1.08
6980 nM	CC(C(=O)O)c1ccc(N2Cc3cc(C#N)ccc3C2=O)cc1 (centres unmarked) [ALB-112477]	1.18
2040 nM	CC(C(=O)O)c1ccc(N2Cc3ccc(C#N)cc3C2=O)cc1 (centres unmarked) [ALB-112478]	1.23

EC50	Structure (SMILES)	maximal fold induction
–	Cc1cc(C(C)C(=O)OC(C)(C)C)ccc1N1Cc2ccccc2C1=O (centres unmarked) [ALB-112483]	1.03
–	Cc1cc(N2Cc3ccccc3C2=O)ccc1C(C)C(=O)O (centres unmarked) [ALB-112485]	1.3
–	Cc1cc(C(C)C(=O)O)ccc1N1Cc2ccccc2C1=O (centres unmarked) [ALB-112487]	1.17
–	CC(C(=O)O)c1ccc(N2Cc3ccc(-c4cccnc4)cc3C2=O)cc1 (centres unmarked) [ALB-112514]	1.25
494 nM	CC(C(=O)O)c1ccc(N2Cc3ccc(-c4cccs4)cc3C2=O)cc1 (centres unmarked) [ALB-112515]	1.62
–	CC(C(=O)O)c1ccc(N2Cc3ccc(-c4ccc(Cl)c(Cl)c4)cc3C2=O)cc1 (centres unmarked) [ALB-112516]	1.2
–	CC(C(=O)O)c1ccc(N2Cc3ccc(-c4cncnc4)cc3C2=O)cc1 (centres unmarked) [ALB-112517]	1.25
–	CC(C(=O)O)c1ccc(N2Cc3cccc(C#N)c3C2=O)cc1 (centres unmarked) [ALB-112518]	1.12
–	CC(C(=O)O)c1ccc(N2Cc3cc(N4CCOCC4)ccc3C2=O)cc1 (centres unmarked) [ALB-112554]	1.06
5900 nM	Cc1cccc2c1CN(c1ccc(C(C)C(=O)O)cc1)C2=O (centres unmarked) [ALB-112555]	1.64
146 nM	Cc1ccc2c(c1)CN(c1ccc(C(C)C(=O)O)cc1)C2=O (centres unmarked) [ALB-112556]	1.56
288 nM	Cc1cccc2c1C(=O)N(c1ccc(C(C)C(=O)O)cc1)C2 (centres unmarked) [ALB-112557]	1.73
8540 nM	C[C@H](C(=O)O)c1ccc(N2Cc3ccccc3C2=O)cc1 [ALB-112837]	1.4
1010 nM	CC(C(=O)O)c1ccc(N2CC3=C(CC=CC3)C2=O)cc1 (centres unmarked) [ALB-112896]	1.58
5820 nM	CC(C(=O)O)c1ccc(N2CC3CCCCC3C2=O)cc1 (centres unmarked) [ALB-112901]	1.49
280 nM	C[C@@H](C(=O)O)c1ccc(N2Cc3ccccc3C2=O)cc1 [ALB-112941]	1.48
279 nM	CC(C(=O)O)c1ccc(N2CC3=C(CCCC3)C2=O)cc1 (centres unmarked) [ALB-112951]	1.79
330 nM	Cc1ccc2c(c1)C(=O)N(c1ccc(C(C)C(=O)O)cc1)C2 (centres unmarked) [ALB-112954]	1.62
3740 nM	C/C=C\c1ccc2c(c1)C(=O)N(c1ccc(C(C)C(=O)OC(C)(C)C)cc1)C2 (centres unmarked) [ALB-113000]	1.31
101 nM	C=Cc1ccc2c(c1)CN(c1ccc(C(C)C(=O)OC(C)(C)C)cc1)C2=O (centres unmarked) [ALB-113100]	1.05
242 nM	CCOc1ccc2c(c1)C(=O)N(c1ccc(C(C)C(=O)OC(C)(C)C)cc1)C2 (centres unmarked) [ALB-113101]	1.38
62 nM	CCOc1ccc2c(c1)C(=O)N(c1ccc(C(C)C(=O)O)cc1)C2 (centres unmarked) [ALB-113102]	1.83
–	CC(C(=O)O)c1ccc(N2Cc3ccc(O)cc3C2=O)cc1 (centres unmarked) [ALB-113103]	1.04
2880 nM	C=Cc1ccc2c(c1)C(=O)N(c1ccc(C(C)C(=O)OC(C)(C)C)cc1)C2 (centres unmarked) [ALB-113210]	1.15
786 nM	CCc1ccc2c(c1)C(=O)N(c1ccc(C(C)C(=O)OC(C)(C)C)cc1)C2 (centres unmarked) [ALB-113211]	1.37
103 nM	CCc1ccc2c(c1)C(=O)N(c1ccc(C(C)C(=O)O)cc1)C2 (centres unmarked) [ALB-113212]	1.87
144 nM	CC(CO)c1ccc(N2Cc3ccccc3C2=O)cc1 (centres unmarked) [ALB-113309]	1.19
